Data: the supplement of paper PMC10627819

Tests used:
S. aureus Newman [1] = experiment: fitness (endpoint OD595 vs no drug) (fraction); higher = more growth
Method in brief: (§1)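 Fitness was measured as bacterial growth in 384-well plates inoculated at OD595 0.01 (30 µl, or 55 µl for S. pneumoniae). Media were TSB, LB Lennox or CY, at 37 °C. OD595 was read every 30 min for 14 h and background-subtracted against the first reading. Fitness is OD595 at the transition into stationary phase divided by the robust mean of no-drug control wells, capped at 1.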

S. pneumoniae D39V [2] = experiment: as above
Method in brief: as §1

B. subtilis 168 [3] = experiment: as above
Method in brief: as §1

S. aureus Newman [4] = experiment: Bliss interaction score (quartile over a dose matrix) (fitness difference); higher = more antagonism (negative = synergy)
Method in brief: (§2)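 Each OD595 reading at entry into stationary phase was scaled to the robust mean of the untreated wells on its plate, with a ceiling of 1. These ratios define fitness, and single-drug fitness was inferred from combinations. The Bliss score compares observed fitness with the product-based expectation and is reported as quartiles across all replicate types, technical, biological and donor/recipient.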

S. pneumoniae D39V [5] = experiment: as above
Method in brief: as §2

B. subtilis 168 [6] = experiment: as above
Method in brief: as §2

S. aureus DSM 20231 = experiment: as above
Method in brief: as §2
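Wherever Bliss interaction score (quartile over a dose matrix) is given: first quartile when negative (synergy) and third quartile when positive (antagonism).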
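Wherever fitness (endpoint OD595 vs no drug) is given: OD595 on entry to stationary phase over no-drug wells; at most 1.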

CC1=C(C(=O)O)N2C(=O)[C@@H](NC(=O)[C@H](N)c3ccccc3)[C@H]2SC1 [Cephalexin] + CC1=C\[C@@H](O)CC(=O)Cc2nc(co2)C(=O)N2CCC=C2C(=O)O[C@H](C(C)C)[C@H](C)/C=C/C(=O)NC\C=C\1 [Virginiamycin M1]
fitness
Details	first compound 0.125 µg/mL	first compound 0.25 µg/mL	first compound 0.5 µg/mL	first compound 1 µg/mL	first compound 4 µg/mL
B. subtilis 168 [3], partner 0.0625 µg/mL	0.966	0.944	0.955	–	–
B. subtilis 168 [3], partner 0.125 µg/mL	0.944	0.926	0.99	–	–
B. subtilis 168 [3], partner 0.25 µg/mL	0.983	0.911	0.989	–	–
S. aureus Newman [1], partner 0.0625 µg/mL	–	≥ 1	0.994	≥ 1	–
S. aureus Newman [1], partner 0.125 µg/mL	–	≥ 1	≥ 1	≥ 1	–
S. aureus Newman [1], partner 0.25 µg/mL	–	≥ 1	≥ 1	≥ 1	–
S. pneumoniae D39V [2], partner 2 µg/mL	–	–	–	0.663	0.0521

fitness, one replicate
Details	first compound 0.125 µg/mL	first compound 0.25 µg/mL	first compound 0.5 µg/mL	first compound 1 µg/mL	first compound 2 µg/mL	first compound 4 µg/mL
S. aureus Newman [1], partner 0.5 µg/mL	–	–	0.847	0.951	0.986	–
S. aureus Newman [1], partner 1 µg/mL	–	–	≥ 1	≥ 1	≥ 1	–
S. aureus Newman [1], partner 2 µg/mL	–	–	0.936	0.923	0.978	–
S. pneumoniae D39V [2], partner 0.15 µg/mL	–	–	–	0.934	0.646	0.0743
S. pneumoniae D39V [2], partner 0.3 µg/mL	–	–	–	0.885	0.628	0.0023
S. pneumoniae D39V [2], partner 0.5 µg/mL	0.967	0.964	≥ 1	0.562	0.316	0.338
S. pneumoniae D39V [2], partner 1 µg/mL	0.966	0.991	≥ 1	0.504	0.0366	0.0659
S. pneumoniae D39V [2], partner 2 µg/mL	0.954	≥ 1	≥ 1	–	–	–

Details	Bliss interaction score
B. subtilis 168 [6]	0.0598
S. aureus DSM 20231	0.0651
S. aureus Newman [4]	0.023
S. pneumoniae D39V [5]	0.16

CC1=C(C(=O)O)N2C(=O)[C@@H](NC(=O)[C@H](N)c3ccccc3)[C@H]2SC1 [Cephalexin] + CCN(CC)CCOC(=O)c1ccc(N)cc1 [Procaine]
fitness
Details	first compound 0.125 µg/mL	first compound 0.25 µg/mL	first compound 0.5 µg/mL	first compound 1 µg/mL
B. subtilis 168 [3], partner 85.5 µg/mL	0.925	0.911	0.904	–
B. subtilis 168 [3], partner 171 µg/mL	0.91	0.912	0.864	–
B. subtilis 168 [3], partner 342 µg/mL	0.879	0.875	0.869	–
S. aureus Newman [1], partner 85.5 µg/mL	–	0.952	–	–
S. aureus Newman [1], partner 342 µg/mL	–	0.966	0.987	≥ 1

fitness, S. pneumoniae D39V [2], one replicate
Details	first compound 0.125 µg/mL	first compound 0.25 µg/mL	first compound 0.5 µg/mL	first compound 1 µg/mL	first compound 2 µg/mL	first compound 4 µg/mL
partner 85.5 µg/mL	≥ 1	≥ 1	≥ 1	0.253	0.0329	0.0487
partner 171 µg/mL	0.958	0.982	≥ 1	0.422	0.058	0.0569
partner 342 µg/mL	0.962	0.997	≥ 1	0.395	0.0539	0.0475

Details	Bliss interaction score
B. subtilis 168 [6]	0.0569
S. aureus DSM 20231	0.0552
S. aureus Newman [4]	-0.0605
S. pneumoniae D39V [5]	-0.118

CC1=C(C(=O)O)N2C(=O)[C@@H](NC(=O)[C@H](N)c3ccccc3)[C@H]2SC1 [Cephalexin] + CN1C2=CC=CC=C2N=C3C1=CC=CC3=O [Pyocyanin]
fitness
Details	first compound 0.125 µg/mL	first compound 0.25 µg/mL	first compound 0.5 µg/mL	first compound 1 µg/mL
B. subtilis 168 [3], partner 1.25 µg/mL	0.923	0.916	0.881	–
B. subtilis 168 [3], partner 2.5 µg/mL	0.874	0.836	0.823	–
B. subtilis 168 [3], partner 5 µg/mL	0.719	0.686	0.679	–
S. aureus Newman [1], partner 1.25 µg/mL	–	0.928	0.92	0.823
S. aureus Newman [1], partner 2.5 µg/mL	–	0.905	0.892	–
S. aureus Newman [1], partner 5 µg/mL	–	0.604	0.559	–

fitness, S. pneumoniae D39V [2], one replicate
Details	first compound 0.125 µg/mL	first compound 0.25 µg/mL	first compound 0.5 µg/mL	first compound 1 µg/mL	first compound 2 µg/mL	first compound 4 µg/mL
partner 0.325 µg/mL	0.976	≥ 1	≥ 1	0.817	0.328	0.0365
partner 0.65 µg/mL	0.933	≥ 1	≥ 1	0.891	0.65	0.158
partner 1.3 µg/mL	0.762	0.805	0.822	–	–	–

Details	Bliss interaction score
B. subtilis 168 [6]	-0.0454
S. aureus DSM 20231	0.0604
S. aureus Newman [4]	0.0862
S. pneumoniae D39V [5]	0.0919
